Measurements taken from patent US8247211B2, “Glycopeptide antibiotics” (American Cyanamid Company, priority 2001, dated 2012).
Converted amounts (≈) assume the structure as drawn.

Assays:
Test in all cases: In vitro antibacterial evaluation: minimum inhibitory concentration (MIC), broth dilution method
Assay type in all cases: cell-based
Conditions in all cases: 18 hours at 35° C.
Streptococcus sp. = tested on: Streptococcus sp.
Procedure, shortened: (§1)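 Inoculum: 5×10^5 CFU/mL. Range: 64-0.06 μg/mL. Medium: Muller-Hinton II […]; NCCLS M7-A2 broth dilution. Endpoint: lowest concentration inhibiting growth. Strains include methicillin-, penicillin- and/or vancomycin-resistant clinical isolates.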

Escherichia coli = tested on: Escherichia coli
Procedure, shortened: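 An MIC is reported for each organism as the least concentration giving inhibition, using broth dilution over 64-0.06 μg/mL with a 5×10^5 CFU/mL inoculum.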

Enterococcus sp. = tested on: Enterococcus sp.
Procedure, shortened: as §1

Staphylococcus sp. = tested on: Staphylococcus sp.
Procedure, shortened: as §1

[1] = broth dilution, inoculum 5×10^5 CFU/mL

MIC Streptococcus agalactiae (GC 4564) (Streptococcus sp.; Streptococcus agalactiae (GC 4564)): 2 µg/mL (≈ 1.37 µM) | MIC Streptococcus pneumoniae (ATCC 6301) (Streptococcus sp.; Streptococcus pneumoniae (ATCC 6301)): 1 µg/mL (≈ 0.685 µM) | MIC Streptococcus pneumoniae (GC 1894) (Streptococcus sp.; Streptococcus pneumoniae (GC 1894)): 0.5 µg/mL (≈ 0.343 µM) | MIC Streptococcus pneumoniae (GC 4565) (Streptococcus sp.; Streptococcus pneumoniae (GC 4565)): 1 µg/mL (≈ 0.685 µM) | MIC Streptococcus pyogenes (GC 4563) (Streptococcus sp.; Streptococcus pyogenes (GC 4563)): 1 µg/mL (≈ 0.685 µM) | MIC Streptococcus agalactiae (GC 4564) (Streptococcus sp.; [1]): 2 µg/mL (≈ 1.37 µM) | MIC Streptococcus pneumoniae (ATCC 6301) (Streptococcus sp.; [1]): 1 µg/mL (≈ 0.685 µM) | MIC Streptococcus pneumoniae (GC 1894) (Streptococcus sp.; [1]): 0.5 µg/mL (≈ 0.343 µM) | MIC Streptococcus pneumoniae (GC 4565) (Streptococcus sp.; [1]): 1 µg/mL (≈ 0.685 µM) | MIC Streptococcus pyogenes (GC 4563) (Streptococcus sp.; [1]): 1 µg/mL (≈ 0.685 µM) | MIC Escherichia coli (ATCC 25922) (Escherichia coli; Escherichia coli (ATCC 25922)): >64 µg/mL | MIC Escherichia coli (GC 4559) (Escherichia coli; Escherichia coli (GC 4559)): >64 µg/mL | MIC Escherichia coli (GC 4560) (Escherichia coli; Escherichia coli (GC 4560)): 2 µg/mL (≈ 1.37 µM) | MIC Enterococcus avium (GC 4558) (Enterococcus sp.; Enterococcus avium (GC 4558)): 16 µg/mL (≈ 11 µM) | MIC Enterococcus faecalis (ATCC 29212) (Enterococcus sp.; Enterococcus faecalis (ATCC 29212)): 16 µg/mL (≈ 11 µM) | MIC Enterococcus faecalis (GC 2242) (Enterococcus sp.; Enterococcus faecalis (GC 2242)): 16 µg/mL (≈ 11 µM) | MIC Enterococcus faecalis (GC 2691) (Enterococcus sp.; Enterococcus faecalis (GC 2691)): 16 µg/mL (≈ 11 µM) | MIC Enterococcus faecalis (GC 3059) (Enterococcus sp.; Enterococcus faecalis (GC 3059)): 32 µg/mL (≈ 21.9 µM) | MIC Enterococcus faecalis (GC 4552) (Enterococcus sp.; Enterococcus faecalis (GC 4552)): 32 µg/mL (≈ 21.9 µM) | MIC Enterococcus faecalis (GC 4553) (Enterococcus sp.; Enterococcus faecalis (GC 4553)): 32 µg/mL (≈ 21.9 µM) | MIC Enterococcus faecalis (GC 4554) (Enterococcus sp.; Enterococcus faecalis (GC 4554)): 32 µg/mL (≈ 21.9 µM) | MIC Enterococcus faecalis (GC 6189) (Enterococcus sp.; Enterococcus faecalis (GC 6189)): 16 µg/mL (≈ 11 µM) | MIC Enterococcus faecium (GC 2243) (Enterococcus sp.; Enterococcus faecium (GC 2243)): 16 µg/mL (≈ 11 µM) | MIC Enterococcus faecium (GC 4556) (Enterococcus sp.; Enterococcus faecium (GC 4556)): 32 µg/mL (≈ 21.9 µM) | MIC Enterococcus faecium (GC 4557) (Enterococcus sp.; Enterococcus faecium (GC 4557)): 4 µg/mL (≈ 2.74 µM) | MIC Enterococcus faecalis (GC 2242) (Enterococcus sp.; [1]): 16 µg/mL (≈ 11 µM) | MIC Enterococcus faecalis (GC 2691) (Enterococcus sp.; [1]): 16 µg/mL (≈ 11 µM) | MIC Enterococcus faecalis (GC 3059) (Enterococcus sp.; [1]): 32 µg/mL (≈ 21.9 µM) | MIC Coagulase Negative Staphylococcus (GC 4547) (Staphylococcus sp.; Coagulase Negative Staphylococcus (GC 4547)): 2 µg/mL (≈ 1.37 µM) | MIC Coagulase Negative Staphylococcus (GC 4548) (Staphylococcus sp.; Coagulase Negative Staphylococcus (GC 4548)): 2 µg/mL (≈ 1.37 µM) | MIC Coagulase Negative Staphylococcus (GC 4549) (Staphylococcus sp.; Coagulase Negative Staphylococcus (GC 4549)): 2 µg/mL (≈ 1.37 µM) | MIC Coagulase Negative Staphylococcus (GC 4551) (Staphylococcus sp.; Coagulase Negative Staphylococcus (GC 4551)): 4 µg/mL (≈ 2.74 µM) | MIC Coagulase Negative Staphylococcus (GC 6257) (Staphylococcus sp.; Coagulase Negative Staphylococcus (GC 6257)): 1 µg/mL (≈ 0.685 µM) | MIC Staphylococcus aureus (ATCC 29213) (Staphylococcus sp.; Staphylococcus aureus (ATCC 29213)): 4 µg/mL (≈ 2.74 µM) | MIC Staphylococcus aureus (GC 1131) (Staphylococcus sp.; Staphylococcus aureus (GC 1131)): 4 µg/mL (≈ 2.74 µM) | MIC Staphylococcus aureus (GC 3051) (Staphylococcus sp.; Staphylococcus aureus (GC 3051)): 4 µg/mL (≈ 2.74 µM) | MIC Staphylococcus aureus (GC 3053) (Staphylococcus sp.; Staphylococcus aureus (GC 3053)): 8 µg/mL (≈ 5.48 µM) | MIC Staphylococcus aureus (GC 4541) (Staphylococcus sp.; Staphylococcus aureus (GC 4541)): 4 µg/mL (≈ 2.74 µM) | MIC Staphylococcus aureus (GC 4542) (Staphylococcus sp.; Staphylococcus aureus (GC 4542)): 4 µg/mL (≈ 2.74 µM) | MIC Staphylococcus aureus (GC 4544) (Staphylococcus sp.; Staphylococcus aureus (GC 4544)): 8 µg/mL (≈ 5.48 µM) | MIC Staphylococcus aureus (GC 4545) (Staphylococcus sp.; Staphylococcus aureus (GC 4545)): 2 µg/mL (≈ 1.37 µM) | MIC Staphylococcus aureus-SMITH (GC 4543) (Staphylococcus sp.; Staphylococcus aureus-SMITH (GC 4543)): 4 µg/mL (≈ 2.74 µM)
Compound: CCOc1cc(COCC2OC(OC3C(CO)OC(Oc4ccc(CC5NC(=O)C(C(C)c6ccccc6)NC(=O)CNC(=O)C(CO)NC(=O)C(C(O)C6CNC(=N)N6C6OC(CO)C(O)C(O)C6O)NC(=O)C(C(O)C6CNC(=N)N6)NC5=O)cc4)C(O)C3O)C(O)C(O)C2O)ccc1OC (stereo not shown) [Example 238]
MIC Staphylococcus haemolyticus (GC 4546) (Staphylococcus sp.; Staphylococcus haemolyticus (GC 4546)): 2 µg/mL (≈ 1.37 µM)
